Several values for one entry are separate records, joined by “and”; a condition that tells them apart may be missing. Equal values may be shown once.
Assay: xn = mol fraction of the nth substance listed
Conditions: Fluid (supercritical or subcritical phases), Frequency=5 MHz, Pulse-echo method

O=C=O [carbon dioxide] + CO
Conditions | speed of sound
323.14 K, 149990 kPa, x1 = 0.925 | 1157.7 m/s
323.14 K, 150010 kPa, x1 = 0.925 | 1157.8 m/s
323.14 K, 159990 kPa, x1 = 0.925 | 1186.2 m/s
323.14 K, 160000 kPa, x1 = 0.925 | 1187 m/s
323.14 K, 160010 kPa, x1 = 0.925 | 1186 m/s
323.14 K, 160050 kPa, x1 = 0.925 | 1186.2 m/s
323.14 K, 169940 kPa, x1 = 0.925 | 1213.1 m/s
323.14 K, 169980 kPa, x1 = 0.925 | 1213.1 m/s and 1213.3 m/s
323.14 K, 170010 kPa, x1 = 0.925 | 1213.2 m/s
323.14 K, 179960 kPa, x1 = 0.925 | 1239.4 m/s
323.14 K, 180000 kPa, x1 = 0.925 | 1239.1 m/s and 1239.5 m/s
323.14 K, 180100 kPa, x1 = 0.925 | 1239.2 m/s
323.14 K, 189980 kPa, x1 = 0.925 | 1263.9 m/s
323.14 K, 190000 kPa, x1 = 0.925 | 1264.3 m/s
323.14 K, 190010 kPa, x1 = 0.925 | 1264.5 m/s
323.14 K, 190050 kPa, x1 = 0.925 | 1264.6 m/s
323.15 K, 24960 kPa, x1 = 0.8502 | 549.5 m/s
323.15 K, 25000 kPa, x1 = 0.7534 | 585.5 m/s
323.15 K, 29950 kPa, x1 = 0.7534 | 635.7 m/s
323.15 K, 30020 kPa, x1 = 0.8502 | 602.8 m/s
323.15 K, 35040 kPa, x1 = 0.7534 | 680.4 m/s
323.15 K, 35100 kPa, x1 = 0.8502 | 648.9 m/s
323.15 K, 40000 kPa, x1 = 0.7534 | 719.1 m/s
323.15 K, 40050 kPa, x1 = 0.8502 | 688.4 m/s
323.15 K, 45010 kPa, x1 = 0.8502 | 724.5 m/s
323.15 K, 45070 kPa, x1 = 0.7534 | 755 m/s
323.15 K, 49920 kPa, x1 = 0.8502 | 757.3 m/s
323.15 K, 50420 kPa, x1 = 0.7534 | 789.8 m/s
323.15 K, 55040 kPa, x1 = 0.8502 | 788.7 m/s
323.15 K, 55120 kPa, x1 = 0.7534 | 818.2 m/s
323.15 K, 59980 kPa, x1 = 0.8502 | 817.2 m/s
323.15 K, 60110 kPa, x1 = 0.7534 | 846.6 m/s
323.15 K, 64840 kPa, x1 = 0.8502 | 843.5 m/s
323.15 K, 65810 kPa, x1 = 0.7534 | 876.8 m/s
323.15 K, 69880 kPa, x1 = 0.8502 | 869.3 m/s
323.15 K, 70220 kPa, x1 = 0.7534 | 899.1 m/s
323.15 K, 75110 kPa, x1 = 0.8502 | 894.6 m/s
323.15 K, 75220 kPa, x1 = 0.7534 | 923.1 m/s
323.15 K, 80180 kPa, x1 = 0.8502 | 918 m/s
323.15 K, 89680 kPa, x1 = 0.8502 | 959.3 m/s
323.15 K, 90000 kPa, x1 = 0.7534 | 988.1 m/s
323.15 K, 99900 kPa, x1 = 0.8502 | 1000.3 m/s
323.15 K, 100230 kPa, x1 = 0.7534 | 1029 m/s
323.15 K, 109760 kPa, x1 = 0.8502 | 1037.3 m/s
323.15 K, 109960 kPa, x1 = 0.7534 | 1065.3 m/s
323.15 K, 119510 kPa, x1 = 0.8502 | 1071.6 m/s
323.15 K, 120580 kPa, x1 = 0.7534 | 1102.5 m/s
323.15 K, 139890 kPa, x1 = 0.8502 | 1137.2 m/s
323.15 K, 140520 kPa, x1 = 0.7534 | 1166.6 m/s
323.15 K, 160410 kPa, x1 = 0.7534 | 1224.7 m/s
323.15 K, 180460 kPa, x1 = 0.7534 | 1278.6 m/s
323.16 K, 69980 kPa, x1 = 0.9803 | 855.3 m/s
323.16 K, 74960 kPa, x1 = 0.9803 | 879.8 m/s
323.16 K, 79950 kPa, x1 = 0.9803 | 903.2 m/s
323.16 K, 89640 kPa, x1 = 0.9803 | 945.6 m/s
323.16 K, 99690 kPa, x1 = 0.9803 | 986.1 m/s
323.16 K, 110360 kPa, x1 = 0.9803 | 1025.6 m/s
323.16 K, 120030 kPa, x1 = 0.9803 | 1059.8 m/s
323.16 K, 129970 kPa, x1 = 0.9803 | 1092.5 m/s
323.16 K, 140230 kPa, x1 = 0.9803 | 1124.5 m/s
323.16 K, 150140 kPa, x1 = 0.9803 | 1153.8 m/s
